# Assay results from patent publication US10487329B2, “Methods and compositions for the treatment of head and neck cancer” (Children's Hospital Medical Center, priority 2015, dated 2019).
# Experiments:
# MDS = details: references [20, 24]; cited from earlier work
# IRAK1 and IRAK4 = details: reference [24]; cited from earlier work
# UMSCC1 cells = assay: Flow cytometry for cleaved caspase-3 (apoptosis), UMSCC1; format: cell-based, human; details: UMSCC1, inhibitor vs DMSO, 72 hours, p<0.05
# Description: Flow cytometry for Cleaved Caspase-3. Lentivirally transduced cells were plated at equal densities and collected 48 hours later. Cells were fixed and prepped following the BD FITC Active Caspase-3 Apoptosis kit protocol (BD Biosciences). Adenovirally transduced cells were prepped with an Alexa-Fluor 647 conjugated cleaved-caspase 3 antibody to account for GFP-positivity (Cell Signaling Technologies (9602)). Analysis was performed on a BD FacsCanto and data analyzed on FlowJo software (Tree Star, Ashland, Oreg., USA). Experiments were performed 3 times with standard error of the mean (SEM) represented.
# IRAK1 inhibitor. UMSCC1 cells were plated at equal densities and IRAK1 inhibitor (IRAK-1/4 inhibitor, 15409, Sigma-Aldrich, St. Louis, Mo., USA) added the same day for caspase-3 flow cytometry experiments. DMSO was added in equal volume for a control.
# (§1) Cells and media were collected 72 hours later and prepared and analyzed as above. For the time-course experiment, cells were plated and inhibitor was added the following day, with protein collected at 24, 48, and 72 hours and analyzed by western blot for IRAK1 inhibition.
# melanoma cells = details: in vitro and in vivo, references [20, 24]; cited from earlier work
# IRAK1 = molecular target: T1, IRAK1 (Homo sapiens, UniProt P51617); assay: Western blot for IRAK1 activation (phospho-IRAK1 Thr209) in HNSCC cell lines; format: cell-based; details: 10 μM, 24-72 hours post-treatment, UMSCC1 and UMSCC47 cells
# T1 construct: endogenous in cells; host or cells: UMSCC1 and UMSCC47 cells
# Description: Western blotting. Whole cell lysates were harvested using Laemmli buffer and a total of 20 μg of protein was analyzed as described previously. Membranes were probed with DEK (1:1000, BD Biosciences, San Jose, Calif., USA), IRAK1 (1:1000, Santa Cruz Biotechnology, Dallas, Tex., USA (sc-7883)), TRAF6 (1:1000, Santa Cruz (sc-7221)), phospho-IRAK1 (Thr209, 1:800, Assay Biotechnology Company (A1074), Sunnyvale, Calif., USA), phospho-p38 (1:500, Cell Signaling Technologies (4361)), p38 (1:1000, Cell Signaling Technologies (9212)), phospho-ERK1/2 (1:1000, Cell Signaling Technologies (4377)), ERK1/2 (1:1000, Cell Signaling Technologies (4695)), phospho-IKKa/r3 (1:500, Cell Signaling Technologies (2697)), IKKa (1:1000, Cell Signaling Technologies (2682)), phospho-hcBa (1:500, Cell Signaling Technologies (9246)), hcBa (1:1000, Cell Signaling Technologies (4812)), a-tubulin-HRP (1:10,000 Cell Signaling Technologies (9099)), actin (1:10,000 a gift from James Lessard), and GAPDH (1:1000, Cell Signaling Technologies (5174)).
# IRAK1 inhibitor. […]
# as §1
# T1 sequence (P51617 whole entry): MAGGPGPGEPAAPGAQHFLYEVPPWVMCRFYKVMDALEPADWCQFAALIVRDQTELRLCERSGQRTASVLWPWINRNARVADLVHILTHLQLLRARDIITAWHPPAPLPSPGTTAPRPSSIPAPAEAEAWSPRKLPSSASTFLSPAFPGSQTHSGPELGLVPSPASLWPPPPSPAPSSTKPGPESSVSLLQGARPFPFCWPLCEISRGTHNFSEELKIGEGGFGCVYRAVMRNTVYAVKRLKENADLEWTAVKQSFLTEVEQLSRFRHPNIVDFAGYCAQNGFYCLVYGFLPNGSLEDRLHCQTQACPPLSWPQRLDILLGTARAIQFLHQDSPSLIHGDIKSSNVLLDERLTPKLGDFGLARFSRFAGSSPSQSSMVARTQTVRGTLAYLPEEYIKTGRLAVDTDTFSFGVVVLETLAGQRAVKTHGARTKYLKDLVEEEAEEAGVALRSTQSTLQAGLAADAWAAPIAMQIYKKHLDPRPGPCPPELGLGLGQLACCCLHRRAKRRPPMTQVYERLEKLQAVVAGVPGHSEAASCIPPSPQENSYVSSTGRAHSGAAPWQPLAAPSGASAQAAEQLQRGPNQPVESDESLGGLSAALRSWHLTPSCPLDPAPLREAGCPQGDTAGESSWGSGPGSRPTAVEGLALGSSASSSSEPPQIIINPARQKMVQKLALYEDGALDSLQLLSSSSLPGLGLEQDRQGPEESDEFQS
smiles,measurement,setting,value
"O=C(Nc1nc2ccccc2n1CCN1CCOCC1)c1cccc([N+](=O)[O-])c1 [IRAK-1/4 inhibitor, N-(2-morpholinylethyl)-2-(3-nitrobenzoylamido)-benzimidazole]",signaling and cell viability in MDS,MDS,inhibit signaling and cell viability
same,kinase selectivity,IRAK1 and IRAK4,selective for IRAK1 and IRAK4
same,apoptosis (cleaved caspase-3),UMSCC1 cells,Significantly increased apoptosis
same,apoptosis in melanoma cells,melanoma cells,increase apoptosis
same,activation of IRAK1 (phosphorylation of IRAK1),IRAK1,attenuated activation of IRAK1
